Data from paper PMC10215404, “Effect of Indole-Containing Pyrazino[2,1-b]quinazoline-3,6-diones in the Virulence of Resistant Bacteria” (Antibiotics, 2023).
≈ marks a conversion by molar mass, not a printed value. Where “and” joins values, the source holds several entries; their conditions need not be identical. Identical values can stand only once.

Columns and labels:
MRSA 272123 = assay: Biofilm formation, crystal violet method; assay type: cell-based, Staphylococcus aureus
Experimental: (§1) The antibiofilm effect of the tested compounds was evaluated using the crystal violet method on E. coli AG100, E. coli AG100A, and MRSA 272123. […] CCCP was used as a positive control.
(§2) The biofilm-forming ability of the S. aureus strains was studied in 96-well microtiter plates using TSB broth in the presence of compounds. The biofilm-forming ability of the E. coli strains was studied in 96-well microtiter plates using LB broth in the presence of the compounds. […] The final volume was 200 μL in each well. The positive control was CCCP at 50 µM. Plates were incubated for 48 h at 30 °C with gentle shaking at 100 rpm. After the incubation period, the medium was removed and the plate was washed with water to remove unattached cells. A total of 200 μL CV (0.1% [v/v]) was added to each wells and incubated for 15 min at room temperature. CV was discarded from the wells and the plate was washed with water again. Then, 200 μL of 70% ethanol was added to each well and the biofilm formation was determined by measuring the OD at 600 nm using a Multiscan EX ELISA plate reader (Thermo Labsystems, Cheshire, WA, USA). The antibiofilm effect of the compounds was expressed as the percentage (%) decrease in biofilm formation.

S. aureus MRSA 272123 = assay: MIC determination, broth microdilution; assay type: cell-based; settings: Staphylococcus aureus
From the text: (§3) Both reference and resistant strains used in this work were employed by our group for the screening of different families of compounds, such as xanthones and thioxanthones.

E. coli AG100A = assay: Real-time ethidium bromide accumulation assay (efflux pump inhibition); settings: minute 60
E. coli AG100 [1] = assay: as above; settings: minute 60
S. aureus 272123 = assay: as above; settings: minute 60
[2] = tested on: E. faecalis including VRE; assay: MIC, summary over E. faecalis strains; settings: Enterococcus faecalis
Experimental: (§4) The MIC of each compound was determined by the broth microdilution method, in accordance with the recommendations of the CLSI [48]. Two-fold serial dilutions of the compounds were prepared in Mueller–Hinton Broth 2 (MHB2–Sigma-Aldrich, St. Louis, MO, USA). Sterility and growth controls were included in each assay. Quality controls were performed with erythromycin for the Gram-positive bacterial strains and with colistin for the Gram-negative bacterial strains. Purity check and colony counts of the inoculum suspensions were also performed to ensure that the final inoculum density closely approximated 5 × 10^5 CFU/mL. The MIC was determined as the lowest concentration at which no visible growth was observed. […] The reported MIC results arose from at least three independent experiments.

E. faecalis B3/101 (VRE) = assay: MIC determination, broth microdilution; assay type: cell-based; settings: Enterococcus faecalis
From the text: as §3

E. faecalis PSi/107 = assay: MIC determination, broth microdilution; assay type: cell-based; settings: Enterococcus faecalis
From the text: as §3

S. aureus ATCC 29213 = assay: MIC determination, broth microdilution; assay type: cell-based; settings: Staphylococcus aureus
From the text: as §3

S. aureus 66/1 (MRSA) = assay: MIC determination, broth microdilution; assay type: cell-based; settings: Staphylococcus aureus
From the text: as §3

E. faecalis PFi/2 = assay: MIC determination, broth microdilution; assay type: cell-based; settings: Enterococcus faecalis
From the text: as §3

E. faecalis ATCC 29212 = assay: MIC determination, broth microdilution; assay type: cell-based; settings: Enterococcus faecalis
From the text: as §3

[3] = tested on: S. aureus, including the MRSA strains; assay: MIC, summary over S. aureus strains; settings: Staphylococcus aureus
Experimental: as §4

[4] = tested on: E. coli AG100, E. coli AG100A, and MRSA 272123; assay: Biofilm formation, crystal violet method (overall statement); assay type: cell-based
Experimental: as §1, §2

[5] = tested on: NIH/3T3 mouse fibroblast cell line; assay: Cytotoxicity assay (MTT); assay type: cell-based; settings: NIH3T3, 24 h
Experimental: The effects of increasing concentrations of compounds on cell growth were tested in 96-well flat-bottomed microtiter plates. The compounds were diluted in a volume of 100 μL of medium. Afterwards, 1 × 10^4 cells in 100 μL of medium were added to each well, with the exception of the medium control. In the case of NIH/3T3 cells, the compounds were added after seeding the cells at 37 °C overnight. The plates were incubated at 37 °C for 24 h; after the incubation period, 20 μL of MTT solution (from a 5 mg/mL stock) was added to each well. After 4 h of incubation at 37 °C, 100 μL of SDS solution (10% in 0.01 M HCl) was added to each well and the plates were incubated at 37 °C overnight. Cell growth was determined by measuring the optical density (OD) at 540 nm (ref. 630 nm) with a Multiscan EX ELISA reader. Inhibition of cell growth was determined as IC50 values, defined as the inhibitory dose that reduced the growth of the cells exposed to the tested compounds by 50%. IC50 values and the SD of triplicate experiments were calculated by using GraphPad Prism software version 5.00 for Windows with a nonlinear regression curve fit (GraphPad Software, San Diego, CA, USA; www.graphpad.com, accessed on 14 July 2022). Doxorubicin (from a 2 mg/mL stock solution, Teva Pharmaceuticals) was used as the positive control.

E. coli AG100 [6] = assay: Biofilm formation, crystal violet method; assay type: cell-based, Escherichia coli; settings: 50 μM
Experimental: as §1, §2

E. faecalis B3/101 = assay: Antibiotic potentiation with vancomycin, broth microdilution; settings: E. faecalis B3/101; compound at 16 µg/mL
[7] = ATCC29213, value in parentheses
[8] = ATCC29212, value in parentheses

Row | Structure (SMILES) | MIC (S. aureus MRSA 272123) | RFI ± SD (E. coli AG100A; compound at 50 μM) | RFI ± SD (E. coli AG100 [1]; compound at 50 μM) | RFI ± SD (S. aureus 272123; compound at 50 μM) | MIC (E. faecalis B3/101 (VRE)) | MIC (E. faecalis PSi/107) | MIC (S. aureus ATCC 29213; ATCC29213) | MIC (S. aureus ATCC 29213; [7]) | MIC (S. aureus 66/1 (MRSA)) | MIC (E. faecalis PFi/2) | MIC (E. faecalis ATCC 29212; ATCC29212) | RFI ± SD (E. coli AG100A; compound at 100 μM) | RFI ± SD (E. coli AG100 [1]; compound at 100 μM) | IC50 [5] | other results
1 | CC(C)C[C@@H]1NC(=O)[C@@H](Cc2c[nH]c3ccccc23)n2c1nc1ccc(I)cc1c2=O [Compound 13a] | > 100 µM | 0.48 ± 0.58 | 0.38 ± 0.01 | 2.39 ± 0.09 |  |  |  |  |  |  |  |  |  |  | decrease in biofilm formation (MRSA 272123): 91%
2 | CC(C)C[C@@H]1NC(=O)[C@H](Cc2c[nH]c3c(Cl)cccc23)n2c1nc1c(Cl)cc(Cl)cc1c2=O [Compound 12d, (1S,4S)-8,10-dichloro-4-((7-chloro-1H-indol-3-yl)methyl)-1-isobutyl-1,2-dihydro-6H-pyrazino[2,1-b]quinazoline-3,6(4H)-dione] | 25 µM and 12.6 µg/mL |  |  |  | 64 µM and 32 µg/mL | > 100 µM | 32 µM | 16 µg/mL | 16 µM and 8 µg/mL | > 100 µM | 64 µM | 0.23 ± 0.05 | 0.32 ± 0.10 | 47.2 ± 1.55 µM | MIC [2]: 64 µM (≈ 32.2 µg/mL); MIC (E. faecalis ATCC 29212; [8]): 32 µg/mL; RFI ± SD (S. aureus 272123; compound at 12.5 μM): 0.34 ± 0.01; MIC [3]: 16 to 32 µM (≈ 8.06 to 16.1 µg/mL); antibiofilm capacity (in words) [4]: did not show any relevant activity
3 | O=C1N[C@@H](Cc2ccc(OCc3ccccc3)cc2)c2nc3c(Cl)cc(Cl)cc3c(=O)n2[C@@H]1Cc1c[nH]c2ccccc12 [Compound 13d] | > 100 µM | 0.55 ± 0.29 | −0.01 ± 0.03 | 0.19 ± 0.08 |  |  |  |  |  |  |  |  |  |  | decrease in biofilm formation (E. coli AG100 [6]): 61%
4 | Cc1ccc2nc3n(c(=O)c2c1)[C@H](Cc1c[nH]c2ccccc12)C(=O)N[C@H]3C(C)C [Compound 13c] | 100 µM and 40 µg/mL | 0.13 ± 0.05 | 0.17 ± 0.02 | 0.94 ± 0.04 |  |  |  |  |  |  |  |  |  |  | 
5 | CC(C)C[C@@H]1NC(=O)[C@H](Cc2c[nH]c3cc(F)ccc23)n2c1nc1c(Cl)cc(Cl)cc1c2=O [Compound 12c] | 12.5 µM and 6.1 µg/mL |  | 0.24 ± 0.16 |  | 33 µM and 16 µg/mL | > 100 µM | 33 µM | 16 µg/mL | 33 µM and 16 µg/mL | > 100 µM | 33 to 66 µM | 4.40 ± 1.78 | 3.60 ± 0.01 | 46.1 ± 0.66 µM | MIC (E. faecalis ATCC 29212; [8]): 16 to 32 µg/mL; RFI ± SD (S. aureus 272123; compound at 6.25 μM (MIC/2)): 0.49 ± 0.01; antibiofilm capacity (in words) [4]: did not show any relevant activity
6 | CC(C)C[C@@H]1NC(=O)[C@@H](Cc2c[nH]c3ccccc23)n2c1nc1cc(F)ccc1c2=O [Compound 12b, (1S,4R)-4-((1H-indol-3-yl)methyl)-9-fluoro-1-isobutyl-1,2-dihydro-6H-pyrazino[2,1-b]quinazoline-3,6(4H)-dione] | 100 µM and 41.8 µg/mL |  | −0.07 ± 0.06 | 0.96 ± 0.07 | 38 µM and 16 µg/mL | > 100 µM | 77 µM | 32 µg/mL | 77 µM and 32 µg/mL | > 100 µM | > 100 µM | 0.77 ± 0.17 | 1.47 ± 0.12 | 58 ± 1.58 µM | 
7 | CC(C)C[C@@H]1NC(=O)[C@@H](Cc2c[nH]c3ccccc23)n2c1nc1ccc(F)cc1c2=O [Compound 12a, (1S,4R)-4-((1H-indol-3-yl)methyl)-8-fluoro-1-isobutyl-1,2-dihydro-6H-pyrazino[2,1-b]quinazoline-3,6(4H)-dione] | > 100 µM |  | −0.17 ± 0.02 | 0.63 ± 0.04 | 77 µM and 32 µg/mL | > 100 µM | > 100 µM |  | 77 µM and 32 µg/mL | > 100 µM | > 100 µM | 0.59 ± 0.03 | 2.45 ± 0.26 | 52.2 ± 0.75 µM | antibiofilm effect (in words) (E. coli AG100 [6]): reduced the amount of biofilm; RFI ± SD (S. aureus 272123; compound at 100 μM): 1.03 ± 0.02; MIC of vancomycin in combination with the compound (E. faecalis B3/101): 256 µg/mL
8 | COc1cccc2c1C(=O)c1c(O)c3c(c(O)c1C2=O)C[C@@](O)(C(=O)CO)C[C@@H]3O[C@H]1C[C@H](N)[C@H](O)[C@H](C)O1 [DOXO, Doxorubicin, reference compound] |  |  |  |  |  |  |  |  |  |  |  |  |  | 3.72 ± 0.15 µM | 
